Laboratory results taken from paper PMC12700550, “DLL4^+ neutrophils promote Notch1-mediated endothelial PANoptosis to exacerbate acute lung injury in sepsis” (The Journal of Clinical Investigation, 2025).
Where “and” joins values, the source holds several entries; their conditions need not be identical. Equal values may be shown once.

What was measured:
c-GSDMD = experiment: c/t GSDMD in lungs of CLP mice, Western blot; type: in vivo, mouse; details: 10 mg/kg NDI, 20 h; for lung c/t GSDMD (Figure 5D): individual mice, 10 mg/kg
Method: (§1) Sepsis was induced in mice by cecal ligation and puncture (CLP) as described previously ([45], [46]). Mice were anesthetized with isoflurane to a surgical plane and placed in a supine position. CLP was performed through a midline laparotomy. The abdomen was shaved and disinfected. Through a 2 cm midline incision, the cecum was exposed and then ligated with a 4-0 silk suture 1 cm proximal from the distal cecal extremity. For 20-hour CLP experiments, the cecum was punctured twice with a 22-gauge needle. A small amount of cecal content was extruded through both holes, and the ligated cecum was returned to the peritoneal cavity. The wound was closed in layers. For 10-day sepsis survival studies, the cecum was punctured once with a 22-gauge needle. A small amount of cecal content was extruded. Mice were allocated to the vehicle and adoptive transfer of DLL4^+ neutrophils or DLL4^– neutrophils groups. Adoptive transfer mice received a retro-orbital injection of 1 × 10^6 cells per mouse DLL4^+ neutrophils or DLL4^– neutrophils in […] phosphate-buffered saline (PBS) immediately after abdominal closure in both the 20-hour experiments and the survival study. Vehicle groups received an equivalent volume of PBS, while treatment groups received NDI 10 mg/kg in […] PBS via retro-orbital injection after CLP. This dose was chosen primarily on the basis of our laboratory’s prior experience, we have consistently used this dose in mouse CLP models with reproducible efficacy and without observable toxicity ([39], [44]). Sham-operated animals underwent a laparotomy without CLP. After closure, the mice received a subcutaneous injection of 0.5 mL of normal saline to overcome surgery-induced dehydration. […]
(§2) PVECs and lung tissue were collected in previous steps. Whole-cell proteins were extracted, and the protein concentration was measured using an ABC protein assay kit (catalog 5000002, Bio-Rad). […] Bands were detected using an Odyssey FC Dual-Mode Imaging system 2800 (LI-COR).

ZBP1 [1] = experiment: ZBP1 mRNA in PVECs cocultured with neutrophils, RT-PCR (DAPT, NDI, peptides 1–5); type: cell-based, mouse; design: key to ZBP1 mRNA expression (Figure 4E): fold change in mRNA vs sham group; details: for ZBP1 mRNA expression (Figure 4E): 10 μM peptide, relative mRNA, β-actin normalized, individual replicates
Method: Immortalized mouse (Mus musculus) lung endothelial cells with polyoma middle T (PVECs) were purchased from Applied Biological Materials Inc. (ABM) and grown in 1:1 PriGrow VI Medium and PriGrow IV Medium (ABM).
Wild-type PVECs (5 × 10^5) were cocultured with sorted DLL4^+ neutrophils (5 × 10^5) or DLL4^– neutrophils (5 × 10^5) and then treated with different dosages of peptides or 10 μM DAPT (Thermo Fisher Scientific), 10 μM NDI (GenScript), or 10 μM NDI scramble (GenScript). Notch1-knockdown PVECs (5 × 10^5) were cocultured with sorted DLL4^+ neutrophils (5 × 10^5). After 16 hours, neutrophils were washed away by PBS, and PVECs were collected for further experiments. Cell viability was evaluated by propidium iodide staining using the FITC Annexin V Apoptosis Detection Kit I (catalog 556547, BD Pharmingen). Cell death was quantified as the percentage of propidium iodide–positive cells by flow cytometry.
mRNA was extracted from lung tissues with TRIzol reagent (Invitrogen, Thermo Fisher Scientific). An equal amount ([…]) of mRNA was reverse-transcribed into cDNA using the reverse transcriptase enzyme (Invitrogen, Thermo Fisher Scientific). qPCR was performed from the diluted cDNA templates with forward and reverse primers (Supplemental Table 4) and SYBR Green PCR Master Mix (Applied Biosystems, Thermo Fisher Scientific) using an Applied Biosystems 7300 real-time PCR machine. Mouse β-actin served as an internal control gene for normalization. Relative expression of mRNA was represented as fold change in comparison with the sham group.

KC = experiment: Lung keratinocyte chemoattractant (KC) mRNA, CLP mice; type: in vivo, mouse; details: 20 h; for lung KC mRNA (Figure 6H): 10 mg/kg NDI, vs sham, individual mice
Method: as §1, with “dehydration. For 20-hour experiments, animals were not injected with antibiotics; however, for survival studies, animals were given 0.5 mg per kg body weight imipenem (lot 4D21K05, WG Critical Care LLC) subcutaneously in 0.5 mL saline once at the end of CLP. All mice were subcutaneously injected with a single dose of 0.1 mg/kg buprenorphine after CLP.” for “dehydration.”

ZBP1 [2] = experiment: ZBP1 protein in lungs of CLP mice, Western blot; type: in vivo, mouse; details: 10 mg/kg NDI, 20 h; for lung ZBP1 protein (Figure 5B): individual mice, 10 mg/kg
Method: as §1, §2

C57BL/6 mice, CLP sepsis = experiment: 10-day survival, CLP mice; type: in vivo, mouse; details: 10 mg/kg NDI
Method: as §1
Data represented in the figures are expressed as mean ± SEM and were compared by 2-tailed Student’s t test for 2 groups or 1-way ANOVA using Student-Newman-Keuls post hoc analysis for multiple groups. Survival rates were analyzed by the Kaplan-Meier estimator and compared using a log-rank test. […]

For ECAGSPCHNGGTCEDGI [NDI], the “lung c/t GSDMD (Figure 5D)” value (c-GSDMD; DLL4^+ neutrophils + CLP) was 2.146 and 1.894 and 1.978 and 1.095 and 1.287 and 1.8342, the “effect on lung c-GSDMD” value (c-GSDMD; DLL4^+ neutrophils/sepsis) was “attenuated the expression/activation” and the “lung c/t GSDMD (Figure 5D)” value (c-GSDMD; DLL4^– neutrophils + CLP) was 1.599 and 0.7489 and 0.6289 and 1.139 and 1.05. The “effect on ZBP1 mRNA” value (ZBP1 [1]; 10 μM NDI, DLL4^+ neutrophil coculture) was “significantly attenuated by NDI treatment”, the “ZBP1 mRNA expression (Figure 4E)” value (ZBP1 [1]; DLL4^+ neutrophil coculture, 16 h) was 1.415 and 1.669 and 3.8174 and 1.677 and 1.56 and 2.849 and 9.163 and 6.321 and 1.561 and 1.421 and 1.212 and 1.283 and 1.413 and 1.3501 and the “ZBP1 mRNA expression (Figure 4E)” value (ZBP1 [1]; DLL4^– neutrophil coculture, 16 h) was 1.952 and 2.343 and 4.227 and 9.382 and 4.404 and 4.151 and 12.0095 and 11.4783 and 1.027 and 3.606 and 3.156 and 1.889 and 1.85 and 3.13. The “effect on ZBP1 mRNA” value (ZBP1 [1]; PVECs cocultured with DLL4^+ neutrophils, varying concentrations of peptide, 16 h, n=10/group) was “significantly reduced ZBP1 expression”, the “inhibition of DLL4^+ neutrophil–induced PANoptosis in PVECs, by reduced ZBP1 expression” value (ZBP1 [1]; among the tested peptides) was “most effectively inhibited” and the “effective concentration for ZBP1 inhibition” value (ZBP1 [1]; dose-response, PVECs cocultured with DLL4^+ neutrophils) was 10 µM. For the same sequence, the “effect on lung KC mRNA” value (KC; DLL4^+ neutrophil-injected CLP mice, 10 mg/kg) was “significantly decreased the mRNA expression of TNF-α, IL-6, and KC in lung tissues”, the “lung KC mRNA (Figure 6H)” value (KC; DLL4^+ neutrophils + CLP) was 5.903 fold change and 0.6661 fold change and 4.862 fold change and 4.727 fold change and 4.686 fold change and 3.906 fold change and 2.6276 fold change and 0.3013 fold change and 7.635 fold change and 2.927 fold change and 2.999 fold change and 5.493 fold change and 8.856 fold change and 7.751 fold change and 5.829 fold change and 6.917 fold change and the “lung KC mRNA (Figure 6H)” value (KC; DLL4^– neutrophils + CLP) was 5.187 fold change and 6.094 fold change and 6.9598 fold change and 7.18 fold change and 9.417 fold change and 3.542 fold change and 4.905 fold change and 5.1155 fold change and 3.48 fold change and 3.364 fold change. For the same sequence, the “lung ZBP1 protein (Figure 5B)” value (ZBP1 [2]; DLL4^+ neutrophils + CLP) was 0.846 and 0.9823 and 0.8189 and 0.8666 and 0.6492 and 0.9798 and 0.8814, the “effect on lung ZBP1 protein” value (ZBP1 [2]; DLL4^+ neutrophils/sepsis) was “effectively decreased ZBP1 expression” and the “lung ZBP1 protein (Figure 5B)” value (ZBP1 [2]; DLL4^– neutrophils + CLP) was 1.332 and 0.9583 and 0.9668. For the same sequence, the “survival rate, 10 days” value (C57BL/6 mice, CLP sepsis; N = 20, PBS-injected 15%) was 75%, the “survival event code (Figure 6M)” value (C57BL/6 mice, CLP sepsis; individual mice, code 0 stands at day 10, 1 at earlier days (meaning not given), 10 mg/kg) was 1 and 0 and the “survival time (Figure 6M)” value (C57BL/6 mice, CLP sepsis; no exogenous neutrophils, individual mice, event code in next endpoint, 10 mg/kg) was 3 days and 6 days and 10 days and 2 days and 4 days.
